Experimental data: PMC12216609, “Inhibitors of eIF1A-ribosome interaction unveil uORF-dependent regulation of translation initiation and antitumor and antiviral effects” (The EMBO Journal, 2025)
Values joined by “and” are separate entries in the source; they are usually repeats but may differ in a detail not shown here. Equal values may be shown once. Read-outs that look alike come from different tables or passages of the source.

Legend:
RPS10 = target: T1, RPS10 (Homo sapiens, UniProt P46783); format: binding
T1 construct: made in house; host or cells: E. coli BL-21

eIF1A-RPS10 interaction = target: T2, eIF1A-RPS10 interaction (Homo sapiens, UniProt P46783+P47813); assay: Split-Renilla luciferase eIF1A-RPS10 interaction screen, dose-response; format: biochemical
T2 construct: made in house; host or cells: E. coli BL21 (PRSFduet); unpurified lysate supernatant
Method: While knockdown (KD) studies of eIF1A provided valuable insights into its role in mammalian cell translation (Sehrawat et al, [2019]), this approach presents several limitations. First, it fails to elucidate the functional significance of the opposing functions of eIF1A N- and C-terminal tails with respect to scanning and start codon fidelity. Second, the extended duration required for achieving efficient knockdown, 48–72 h, impairs our ability to differentiate between direct and indirect effects. To overcome these constraints, we set out to develop small-molecule inhibitors targeting eIF1A. Guided by structural and biochemical studies showing eIF1A binding to the small ribosomal subunit at the A-site and interacting directly with RPS10 through its N-terminal tail (Haimov et al, [2017]; Passmore et al, [2007]; Sehrawat et al, [2019]), our approach focused on disrupting the interaction between eIF1A and RPS10. […] The interaction between eIF1A and RPS10 brings the two parts together, leading to the reconstitution of the enzymatic activity (Haimov et al, [2017]). In this system, the spatial arrangement of the two RL parts is critical for the enzymatic activity, making it sensitive not only to direct interference with the interacting proteins but also to changes in the conformation of the fused proteins. In the eIF1A-RPS10 split-RL pair, the C-terminus of eIF1A is fused to N-RL (Fig. 1A), in order to maintain the NTT accessible to RPS10 binding. This pair was cloned and expressed in bacteria as recombinant proteins and used to screen a library of ~50,000 small molecules from diverse sources (Ashkenazi et al, [2017]).
eIF1A-ΔC-Renilla and RPS10-ΔN-Renilla were transformed into BL21 E. coli by heat shock transformation. A bacterial starter of 5 ml LB was incubated overnight at 37 °C and transferred into 1 L LB for incubation at 37 °C until OD ~ 0.5–0.7. Next, protein expression was induced with 0.5 mM IPTG, and bacterial cells were incubated overnight at 16 °C. Bacterial cell pellet was collected after centrifugation (3000 RPM, 15 min), resuspended in 20 ml TKE buffer (Tris 10 mM, KCl 100 mM, EDTA 0.1 mM), sonicated (bath sonicator, 24 cycles of 30 s) and centrifuged again (15000 RPM, 30 min). Supernatants were collected, analyzed for RL activity, and then used for high throughput drug screen (HTS) at the Weizmann G-INCPM HTS unit as described (Ashkenazi et al, [2017]). In addition to the standard controls of this protocol, the two parts of the split RL, without eIF1A or RPS10, were tested as controls. Selected compounds were purchased from Sigma-Aldrich and Enamine. Compound powders were resuspended in DMSO for a final concentration of 10 mM and stored at −20 °C.

eIF1A = target: T3, eIF1A (Homo sapiens, UniProt P47813); format: binding; conditions: for fluorescence ratio, eIF1A: background-corrected, relative to DMSO or lowest 1Ai concentration, replicate columns; for WT eIF1A IC50: fluorescence binding
T3 construct: His-bdSUMO (cleaved yes); made in house; host or cells: E. coli BL-21

[1] = test system: cap-proximal AUG GFP reporter in HEK293T cells; format: cell-based; conditions: GFP WB densitometry; 20 µM overnight; dmso 0.965946
From the text: Translation from an AUG preceded by a very short 5'UTR (less than 30 nt) is usually inefficient and frequently bypassed, resulting in initiation from a downstream AUG, a phenomenon known as leaky scanning. […] To examine the impact of 1Ais on short 5'UTR initiation, we used a GFP reporter gene containing an AUG located 16 nt downstream from the 5' end followed by a second in-frame downstream AUG (Fig. 1F; Appendix Fig. S1B). Cells were transfected with this GFP reporter gene followed by exposure to DMSO (vehicle) and 1Ais. Initiations from upstream (US) or downstream (DS) AUGs were determined by western blot (WB) with anti-GFP antibodies and the ratio between the US and DS AUG was determined.
For the analysis of translation from very short 5'UTR and Leaky scanning, HEK293T cells were transfected with a GFP (20 ng/well) reporter gene driven by a cap-proximal and downstream AUGs (Elfakess et al, [2011]) together with a luciferase reporter gene (100 ng/well) as normalizing control and treated with 20 µM of 1Ais as described above. GFP levels were determined by Western blot (WB) (GFP antibody, Abcam #ab290) and quantified by densitometry (ImageJ) and normalized to the measured luciferase activity.
HEK293T cells were transfected with the GFP reporter gene schematically shown on the top. The first
AUG is […] from the 5’ end and the downstream AUG is in the same frame. Six hours after transfection, cells were treated with 1Ais. After overnight exposure to 1Ais, GFP expression was analyzed by WB using anti -GFP antibodies.
US/DS ratio was determined by densitometry and represents the long protein expression (upstream AUG, US) vs the […]
biological replicates. (C-D) Analysis of reporter genes mRNA levels after 1Ais treatment.

[2] = read-out: IC50 (line under RPS10 binding data)
[3] = summary table, fluorescence binding assay, read-out: IC50 concentration (µM), RPS10
[4] = summary table, read-out: IC50 concentration (µM), IC50 screen
[5] = summary table, fluorescence binding assay
[6] = Appendix Table S1, read-out: IC50 from the split RL screen
[7] = eIF1A, from the titration data, read-out: IC50 (eIF1A titration block)

T2 sequence (P47813 whole entry, one chain of several): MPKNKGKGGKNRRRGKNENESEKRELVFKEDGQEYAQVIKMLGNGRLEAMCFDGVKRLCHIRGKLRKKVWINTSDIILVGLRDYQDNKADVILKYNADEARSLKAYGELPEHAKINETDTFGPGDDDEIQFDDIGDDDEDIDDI
T3 sequence (P47813 whole entry): as the sequence (P47813 whole entry, one chain of several) above

| Structure (SMILES) | RPS10 fluorescence ratio to control (RPS10; 1Ai conc. 0.25 uM) | RPS10 fluorescence ratio to control (RPS10; 1Ai conc. 0.5 uM) | RPS10 fluorescence ratio to control (RPS10; 1Ai conc. 1 uM) | RPS10 fluorescence ratio to control (RPS10; 1Ai conc. 2 uM) | RPS10 fluorescence ratio to control (RPS10; 1Ai conc. 4 uM) | RPS10 fluorescence ratio to control (RPS10; 1Ai conc. 8 uM) | RPS10 fluorescence ratio to control (RPS10; 1Ai conc. 16 uM) | RPS10 fluorescence ratio to control (RPS10; 1Ai conc. 32 uM) | RPS10 fluorescence ratio to control (RPS10; 1Ai conc. 64 uM) | RPS10 fluorescence ratio to control (RPS10; 1Ai conc. 256 uM) | IC50 (RPS10; [3]) | IC50 (eIF1A-RPS10 interaction; [4]) | fluorescence ratio, eIF1A (eIF1A; 1Ai conc. 0.25 uM) | fluorescence ratio, eIF1A (eIF1A; 1Ai conc. 0.5 uM) | fluorescence ratio, eIF1A (eIF1A; 1Ai conc. 1 uM) | fluorescence ratio, eIF1A (eIF1A; 1Ai conc. 2 uM) | fluorescence ratio, eIF1A (eIF1A; 1Ai conc. 4 uM) | fluorescence ratio, eIF1A (eIF1A; 1Ai conc. 8 uM) | fluorescence ratio, eIF1A (eIF1A; 1Ai conc. 16 uM) | fluorescence ratio, eIF1A (eIF1A; 1Ai conc. 32 uM) | also measured |
| --- | --- | --- | --- | --- | --- | --- | --- | --- | --- | --- | --- | --- | --- | --- | --- | --- | --- | --- | --- | --- | --- |
| C=CCNC(=O)CN1CCN(Cc2nc3cc(-c4ccc(Cl)cc4)sc3c(=O)[nH]2)CC1 [1Ai-1524] | 1.173 | 1.067 | 0.76 | 0.8336 | 0.607 | 0.7612 | 0.4083 | 0.3654 | 0.4197 | 0.05131 | 16.8 µM | 30 µM | 1.099 and 1 | 1.123 and 1.057 | 1.12 and 1.013 | 1.158 and 0.9647 | 1.086 and 0.8847 | 0.9254 and 0.8076 | 0.9496 and 0.7767 | 1.01 and 0.848 | IC50 (RPS10; [2]): 16.8 µM; IC50 (RPS10; read-out: RPS10 IC50): 16.8 µM; fluorescence ratio, eIF1A (eIF1A; 1Ai conc. 64 uM): 0.9931 and 0.7702; fluorescence ratio, eIF1A (eIF1A; 1Ai conc. 256 uM): 1.036 and 1.149; WT eIF1A IC50 (eIF1A): No binding; IC50 concentration (µM), WT eIF1A (eIF1A; [5]): No binding; US/DS ratio, average [1]: 0.7201 |
| CCOC(=O)c1ccsc1NC(=O)CN1C(=O)NC(C)(c2cccc3ccccc23)C1=O (stereo not drawn) [1Ai-1861] | 1 | 0.8226 | 0.9775 | 0.7185 | 0.4957 | 0.1947 | 0.1506 | 0.08052 | 0.3768 | 0.398 | 3.7 µM | 15 µM | 1.039 and 0.974 | 1.136 and 0.9941 | 1.143 and 0.9966 | 1.167 and 0.9386 | 1.169 and 0.9347 | 1.065 and 0.8919 | 1.1254 and 0.8973 | 1.149 and 0.9563 | IC50 (RPS10; [2]): 3.7 µM; IC50 (RPS10; read-out: RPS10 IC50): 3.7 µM; IC50 (eIF1A-RPS10 interaction; [6]): 14 µM; fluorescence ratio, eIF1A (eIF1A; 1Ai conc. 64 uM): 1.304 and 0.9843; fluorescence ratio, eIF1A (eIF1A; 1Ai conc. 256 uM): 1.359 and 0.9897; IC50 (eIF1A; [7]): 71 µM; WT eIF1A IC50 (eIF1A): No binding; IC50 concentration (µM), WT eIF1A (eIF1A; [5]): No binding; US/DS ratio, average [1]: 0.86 |
| COc1cccc(Nc2nc(-c3ccc(NC(C)=O)cc3)c(C)s2)c1 [1Ai-1869] | 0.7198 | 0.6885 | 0.6476 | 0.5996 | 0.5488 | 0.4668 | 0.3725 | 0.2785 | 0.234 | 0.2345 | 7.7 µM | 14 µM | 0.7968 and 0.7342 | 0.8838 and 0.7405 | 0.8128 and 0.72 | 1.007 and 0.8137 | 0.913 and 0.7844 | 0.7676 and 0.6709 | 0.6554 and 0.584 | 0.5701 and 0.4814 | IC50 (RPS10; [2]): 7.7 µM; IC50 (RPS10; read-out: RPS10 IC50): 7.7 µM; IC50 (eIF1A-RPS10 interaction; [6]): 18 µM; fluorescence ratio, eIF1A (eIF1A; 1Ai conc. 64 uM): 0.4848 and 0.4176; fluorescence ratio, eIF1A (eIF1A; 1Ai conc. 256 uM): 0.3469 and 0.3333; IC50 (eIF1A; [7]): 20.4 µM; IC50 (eIF1A; summary table, fluorescence binding assay, read-out: IC50 concentration (µM), WT eIF1A): 20.4 µM; US/DS ratio, average [1]: 1.144 |
| O=C(CSc1nc(-c2ccccc2)cn1-c1ccccc1)NC(=O)Nc1ccccc1 [1Ai-2383] | 1.003 | 0.5095 | 0.4927 | 0.4799 | 0.3805 | 0.08815 | 0.2868 | 0.02728 | 0.2465 | 0.3391 | 0.661 µM | 23 µM | 0.9677 and 0.9798 | 0.9803 and 0.9815 | 1.02 and 0.9558 | 1.009 and 0.948 | 0.993 and 0.9579 | 0.9438 and 0.997 | 1.039 and 1.06 | 1.096 and 1.111 | IC50 (RPS10; fluorescence binding, read-out: RPS10 IC50): 0.7 µM; IC50 (RPS10; source data Fig. 2B, read-out: IC50 (line under RPS10 binding data)): 0.66 µM; fluorescence ratio, eIF1A (eIF1A; 1Ai conc. 64 uM): 1.232 and 1.231; fluorescence ratio, eIF1A (eIF1A; 1Ai conc. 256 uM): 1.523 and 1.464; WT eIF1A IC50 (eIF1A): No binding; IC50 concentration (µM), WT eIF1A (eIF1A; [5]): No binding; US/DS ratio, average [1]: 0.4898 |
